Data on 2 molecules can be found in patent US20210255193A1, “LYSINE REACTIVE PROBES AND USES THEREOF” (The Scripps Research Institute, priority 2017, published 2021).

As a reminder, the IC50 is the concentration needed to halve the response being measured.

One experiment concerns the target T1, PFKP (Homo sapiens, UniProt Q01813).
T1 construct: Flag; expressed in transfected cells; host or cells: HEK 293T, transient transfection, soluble lysate; cDNA clone 5180268 (Dharmacon)
T1 sequence (Q01813 1-784): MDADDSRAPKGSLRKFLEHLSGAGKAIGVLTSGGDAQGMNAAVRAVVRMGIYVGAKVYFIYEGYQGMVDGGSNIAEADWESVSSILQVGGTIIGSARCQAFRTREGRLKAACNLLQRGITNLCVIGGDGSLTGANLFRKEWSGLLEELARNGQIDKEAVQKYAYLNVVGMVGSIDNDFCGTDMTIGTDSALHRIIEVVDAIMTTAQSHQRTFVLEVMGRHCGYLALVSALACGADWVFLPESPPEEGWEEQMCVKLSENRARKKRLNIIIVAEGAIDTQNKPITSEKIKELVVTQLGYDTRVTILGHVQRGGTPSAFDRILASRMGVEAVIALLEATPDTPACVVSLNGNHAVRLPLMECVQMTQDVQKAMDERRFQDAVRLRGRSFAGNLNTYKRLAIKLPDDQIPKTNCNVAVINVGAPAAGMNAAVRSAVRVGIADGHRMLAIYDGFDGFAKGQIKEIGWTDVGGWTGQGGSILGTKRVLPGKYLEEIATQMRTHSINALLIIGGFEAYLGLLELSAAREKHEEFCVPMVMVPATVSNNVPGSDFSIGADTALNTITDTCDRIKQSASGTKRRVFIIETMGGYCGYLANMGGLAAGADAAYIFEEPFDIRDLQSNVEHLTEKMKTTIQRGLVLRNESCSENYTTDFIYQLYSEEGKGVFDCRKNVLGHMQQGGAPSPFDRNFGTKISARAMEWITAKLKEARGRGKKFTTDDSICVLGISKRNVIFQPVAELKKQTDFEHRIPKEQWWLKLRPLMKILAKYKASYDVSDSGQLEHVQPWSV
Description: PFKP functional assay. It is filed as biochemical. The settings on record: WT-PFKP. Here is the method: PFKP functional assay. For inhibitor experiments, 50 μl of soluble proteome (initial total protein concentration: 1 mg ml^−1) from HEK 293T cells expressing PFKP (WT or K688R mutant) or mock transfected cells (empty vector; negative control) were incubated with 1 μl 50× of the compound in DMSO or DMSO for the positive or negative control for 1 h at room temperature. Lysates were diluted 40× with dilution buffer (PBS containing 0.2 mg ml^−1 BSA and 5 mM MgCl2) and 40 μl were added into a clear bottom 384 well plate. 10 μl of a mixture of 3.5 μl PBS, 2.5 μl fructose-6-phosphate (100 mM), 1 μl NADH (20 mM), 1 μl ATP (50 mM), 1 μl aldolase (50 U ml^−1) and 1 μl GDH/TPI (500 U ml^−1 TPI, 50 U ml^−1 GDH) were added to start the reaction. The absorbance of NADH was measured at 340 nm every minute for 30 min.
(§1) Calculation of relative activity or percent inhibition. For PNPO, PFKP, NUDT2 and G6PD, the slope of the linear regression of the linear portion of the absorbance or fluorescence over time was used as measure their activity. Apparent activity was calculated relative to the WT. Percent inhibition was calculated relative to the positive and negative control and used to calculate IC50 values by nonlinear regression analysis from a dose-response curve generated using GraphPad Prism 7.

For the next experiment, the target named is T2, NUDT2 (Homo sapiens, UniProt P50583).
T2 construct: expressed in transfected cells; host or cells: HEK 293T, transient transfection, soluble lysate; synthesized gene (IDT)
Description: NUDT2 functional assay. It is filed as biochemical. The conditions noted are these: substrate assay. On the procedure:
NUDT2 functional assay. NUDT2 activity was measured with a published assay using a fluorogenic substrate. For inhibitor experiments, 50 μl of soluble proteome (initial total protein concentration: 1 mg ml^−1) from HEK 293T cells expressing NUDT2 (WT or K89R mutant) or mock transfected cells (empty vector; negative control) were incubated with 1 μl 50× of the compound in DMSO or DMSO for the positive or negative control (lysate transfected with empty vector) for 1 h at room temperature. Lysates were diluted 4000× with dilution buffer and 64 μl were added into a black 384 well plate. 16 μl of fluorogenic substrate (5 μM) were added to start the reaction. The fluorescence intensity with excitation at 530 nm and emission at 563 nm was measured every minute for 30 min.
as §1

T2 sequence (P50583 whole entry): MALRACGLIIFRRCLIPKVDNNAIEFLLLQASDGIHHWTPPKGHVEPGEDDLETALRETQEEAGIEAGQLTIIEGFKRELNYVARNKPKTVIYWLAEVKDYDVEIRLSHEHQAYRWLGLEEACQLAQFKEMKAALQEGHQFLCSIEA

Turning to `O=C(Oc1c(F)c(F)c(F)c(F)c1F)C(c1ccccc1)c1ccccc1` [fragment 20, Pentafluorophenyl 2,2-diphenylacetate], at PFKP (enzyme-coupled assay, read-out: apparent IC50, inhibition of PFKP activity), the IC50 came to 2.9 µM. The “maximal inhibitory effect, reduction in substrate turnover” value at PFKP (plateau) was “about 80%”.

As to `COC(=O)NC(=NC(=O)OCC1c2ccccc2-c2ccccc21)n1cccn1` [fragment 49, N-Methoxycarbonyl-N′-9-fluorenylmethoxycarbonyl-pyrazole-1-carboxamidine], the “IC50, inhibition of NUDT2 activity” value against NUDT2 is “equivalent IC50 value”.
